Assay results: patent publication US20170000112A1, “METHOD OF PRESERVING CUT ROSES DURING TRANSPORTATION AND STORAGE AND SHIPMENT KIT CONTAINING CUT ROSES” (priority 2013, published 2017)

Legend:
rose flower buds = settings: 350 mg/L (ca. 1 mM) solution; preliminary experiments, data not shown; cited from earlier work
cut rose flowers = settings: sprayed or held in solution prior to simulated home conditions; cited from earlier work
cut roses [1] = assay: Vase life of cut roses after 14 days simulated dry refrigerated transport (Examples 1 and 2); format: in vivo, rose; settings: flower heads dipped 3 s in 80 ppm BA, 14 days dry transport at 2° C.
Protocol: Freshly cut red roses (Red Desire') were obtained from a greenhouse in the Netherlands. These flowers were randomly divided into three different sets . Within 4 hours of cutting, one set of flowers (set A) was subjected to a preservation treatment that involved dipping of the flower heads into an aqueous solution of 80 ppm 6-benzylaminopurine (BA) in tap water for 3 seconds. Immediately after the preservation treatment, each set of flowers was bunched and sleeved (6 flowers per sleeved bunch) after the ends of the flower stems had been cut off, and in total 108 flowers of each set were kept 24 hours at 2° C. under dark conditions in buckets (54 stems per bucket) with the flower stems immersed in 2 liters of water containing 1 ml/l of a flower pre-treatment product ([…]® Grow 20). Following this pre-treatment, the sleeved flower bunches of set A were removed from the buckets and packaged without any external water supply in a carton box (l×b×h=1.0×0.4×0.2 m). The carton box contained 18 sleeved flower bunches. One of the other two sets of flowers (Control) was packaged in the same way. The remaining set of flowers (Reference) was not packaged dry into a carton box, but immediately subjected to the sequence of storage and display conditions described in Table 1. [table] Before the refrigerated storage and the home display the ends of the flower stems were cut off. The packaged flowers (sleeved and in a carton box) belonging to Set A and the Control set were subjected to simulated refrigerated transport under dry, dark conditions for 14 days at 2° C. before also being subjected to the sequence of storage and display conditions described in Table 1. Before the refrigerated storage stage the BA concentrations in the flower heads were analyzed. In addition, the vase life of the flowers was assessed by an expert panel during the home display period. Example 1 was repeated, except that this time, instead of using cut roses obtained from a Dutch green house, cut roses that had been air transported under dry conditions from Kenya to the Netherlands were used. Three different types of cut red roses were used in this study, namely 'Hot Blood', 'Rhodos' and 'Incredible'.

cut red roses [2] = assay: Colour retention of red roses after 11 days on the vase (Examples 1 and 2); format: in vivo, rose; settings: dipped in 80 ppm BA
cut roses [3] = assay: Vase life and leaf quality after 9 days simulated dry transport (Examples 3 and 4); format: in vivo, rose; settings: for Vase life: dipped in 80 ppm BA, 9 days dry transport; for Leaf quality: visual score after 12 days on the vase, 1=poor, 5=good
Excerpt: Example 1 was repeated, except that this time no Reference set was used, i.e. the study used two sets of flowers that were both transported without water supply (dry). Furthermore, the cut roses used in the study had been air transported under dry conditions from Colombia to the Netherlands. Bunches containing 4 flowers of each of three different types of roses (‘Red Intuition’ (red), ‘Citran’ (yellow), ‘Vendela’ (white) were used in this study. The duration of simulated transportation was reduced from 14 to 9 days and the duration of shop display was increased from 2 to 3 days.
Besides the vase life of the flowers the expert panel also scored visual leaf quality after 12 days on the vase (1=poor, 5=good). The BA concentration in the flower heads was not analyzed in this study.
Example 3 was repeated, except that this time the following three different types of roses were used in the study: • ‘Freedom’ (red) • ‘Bonanza’ (peach) • ‘Sandra’ (pink)

cut red roses [4] = assay: Vase life, dipped/dry versus BA in bucket water, 24 hours at 2° C. (Example 5); format: in vivo, rose
Excerpt: Three different types of cut red roses were used in this study, namely ‘Hot Blood’, ‘Rhodos’ and ‘Incredible’. For each type flowers were randomly divided into four different sets.
One set of flowers (set A) was subjected to a preservation treatment that involved dipping of the flower heads into an aqueous solution of 80 ppm 6-benzylaminopurine (BA) in tap water for 3 seconds.
Immediately after the preservation treatment of set A, each set of flowers was bunched and sleeved (10 flowers per sleeved bunch) after the ends of the flower stems had been cut off, and in total 20 flowers of each set were kept for 4 hours at 20° C. under dark conditions in buckets (60 stems per bucket) with the flower stems immersed in 2 liters of water containing 1 ml/l of a flower pre-treatment product (Chrysal® Grow 20).
Following this pre-treatment, the sleeved flower bunches of set A were removed from the buckets and packaged without any external water supply in a carton box (l×b×h=1.0×0.4×0.2 m). The carton box contained 6 sleeved flower bunches.
One of the other three sets of non-dipped flowers(Control) was packaged in the same way, i.e. in carton boxes without external water supply.
The remaining two sets of non-dipped flowers (sets B and C) were introduced into buckets (20 stems per bucket) that each contained 2 liters of water.
The bucket water of set B contained 7 ppm BA. The bucket water of set C contained 7 ppm BA as well as 5 ml/l of Chrysal® Clear Professional 2 (CCP2). This product is based on sugars and acidifier, while biocides are present to protect these active ingredients against bacterial attack.
The four sets of roses were kept at 2° C. under dark conditions for 24 hours, following which each set was transferred into buckets (60 stems per bucket) that contained 2 liters of water to which 5 ml/l Chrysal® Clear Professional 2 had been added. Before introducing the cut flowers into the buckets, the ends of the flower stems were cut off. The buckets holding the sleeved cut flowers were kept for 4 days under dark, refrigerated (2° C.) conditions, and subsequently for 2 days at 20° C. under daylight conditions (12 hours 1000 lux and 12 hours dark).
Next, for each of the three different type of cut red roses the two bunches of 10 cut flowers from each of the sets were introduced in vases, each holding 1 liter of water to which 10 g/l Chrysal® Clear had previously been added. Before introducing the cut flowers into the vases, the ends of the flower stems were cut off. The vases holding the flowers were kept at 20° C. under daylight conditions (12 hours 1000 lux and 12 hours dark).
The quality of the cut flowers was assessed at regular intervals by an expert panel and from these assessments the average vase life was determined for the cut flowers of each of the 4 sets.
The letters behind the numerical scores in Table 8 indicate to which extent the difference between the 4 scores for a given set of cut flowers are statistically significant (at a P-value of 0.05). Scores that are followed by the same latter are not statistically significant.

cut red roses [5] = assay: Vase life, dipped/dry versus BA in bucket water, 8 days at 2° C. (Example 6); format: in vivo, rose
Protocol: Example 5 was repeated, except that this time the sets of cut flowers were kept under refrigerated and dark conditions for 8 days instead of 24 hours.

[6] = test system: flower spikes of gladiolus and carnation; settings: stems immersed in 10, 30 and 75 ppm solution; spikes previously wilted dry for 4 hours; cited from earlier work

C=C1C[C@]23C[C@@]1(O)CC[C@H]2[C@@]12C=C[C@H](O)[C@](C)(C(=O)O1)[C@H]2[C@@H]3C(=O)O [GA3]
Effect on rose flower vase-life when applied as a spray (rose flower buds): optimal for improving rose flower vase-life

c1coc(CNc2ncnc3[nH]cnc23)c1 [KI, kinetin]
Effect on rose vase life (cut rose flowers): did not benefit on rose vase life

c1ccc(CNc2ncnc3nc[nH]c23)cc1 [BA, 6-benzylaminopurine]
Vase life (cut roses [1]; 'Hot Blood' (Kenya)): 13.9 days
Vase life (cut roses [1]; 'Incredible' (Kenya)): 13.0 days
Vase life (cut roses [1]; 'Red Desire'): 12.8 days
Vase life (cut roses [1]; 'Rhodos' (Kenya)): 14.9 days
Colour of the red roses after 11 days on the vase (cut red roses [2]; 'Hot Blood', control showed blueing/darkening): retained most of their original red colour
Colour of the red roses after 11 days on the vase (cut red roses [2]; 'Incredible', control showed blueing/darkening): retained most of their original red colour
Colour of the red roses after 11 days on the vase (cut red roses [2]; 'Red Desire', control showed bluing/darkening): retained most of their original red colour
Colour of the red roses after 11 days on the vase (cut red roses [2]; 'Rhodos', control showed blueing/darkening): retained most of their original red colour
Vase life (cut roses [3]; 'Bonanza' (peach)): 14.5 days
Vase life (cut roses [3]; 'Citran' (yellow, Colombia)): 12.5 days
Vase life (cut roses [3]; 'Freedom' (red)): 18.8 days
Vase life (cut roses [3]; 'Red Intuition' (red, Colombia)): 9.6 days
Vase life (cut roses [3]; 'Sandra' (pink)): 17.6 days
Vase life (cut roses [3]; 'Vendela' (white, Colombia)): 13.0 days
Leaf quality (cut roses [3]; Example 3 (Red Intuition, Citran, Vendela)): 3.0
Leaf quality (cut roses [3]; Example 4 (Freedom, Bonanza, Sandra)): 4.0
Vase life (cut red roses [4]; 'Hot Blood', non-dipped, wet, stems in bucket water containing 7 ppm BA, 24 hours at 2° C.): 11.2 days
Vase life (cut red roses [4]; 'Hot Blood', set A, flower heads dipped in 80 ppm BA, dry in carton box 24 hours at 2° C.): 16.2 days
Vase life (cut red roses [4]; 'Incredible', non-dipped, wet, stems in bucket water containing 7 ppm BA, 24 hours at 2° C.): 11.1 days
Vase life (cut red roses [4]; 'Incredible', set A, flower heads dipped in 80 ppm BA, dry in carton box 24 hours at 2° C.): 17.2 days
Vase life (cut red roses [4]; 'Rhodos', non-dipped, wet, stems in bucket water containing 7 ppm BA, 24 hours at 2° C.): 9.4 days
Vase life (cut red roses [4]; 'Rhodos', set A, flower heads dipped in 80 ppm BA, dry in carton box 24 hours at 2° C.): 13.9 days
Vase life of the dipped set versus the non-dipped sets (cut red roses [4]; each of the rose types, P-value of 0.05, 24 hours at 2° C.): significantly longer vase life
Average vase life of the dipped set versus the non-dipped sets (cut red roses [5]; 'Hot Blood', P-value of 0.05, 8 days at 2° C.): higher than that of the non-dipped sets, but the difference with the control set and set C was not statistically significant
Vase life (cut red roses [5]; 'Hot Blood', non-dipped, wet, stems in bucket water containing 7 ppm BA, 8 days at 2° C.): 7.3 days
Vase life (cut red roses [5]; 'Hot Blood', set A, flower heads dipped in 80 ppm BA, dry in carton box 8 days at 2° C.): 11.8 days
Vase life (cut red roses [5]; 'Incredible', non-dipped, wet, stems in bucket water containing 7 ppm BA, 8 days at 2° C.): 10.4 days
Vase life (cut red roses [5]; 'Incredible', set A, flower heads dipped in 80 ppm BA, dry in carton box 8 days at 2° C.): 14.8 days
Vase life (cut red roses [5]; 'Rhodos', non-dipped, wet, stems in bucket water containing 7 ppm BA, 8 days at 2° C.): 8.2 days
Vase life (cut red roses [5]; 'Rhodos', set A, flower heads dipped in 80 ppm BA, dry in carton box 8 days at 2° C.): 13.5 days
Vase life of the dipped set versus the non-dipped sets (cut red roses [5]; two of the rose types ('Rhodos', 'Incredible'), P-value of 0.05, 8 days at 2° C.): significantly longer vase life
Effect on vase life of flower spikes [6]: extended the vase life
Effect on rose vase life (cut rose flowers): did not benefit on rose vase life
